According to the NIST ThermoML archive (doi:10.1016/j.jct.2018.02.001):

Experiments:
[1] = 101.33 kPa, Liquid, Vibrating tube method
[2] = mn = molality of the nth substance listed, in mol/kg; conditions: 100 kPa, Liquid, Vibrating tube method

CCn1cc[n+](CC)c1.[Br-] [1,3-diethyl-1H-imidazolium bromide]
[1]
Conditions	mass density [kg/m3]
293.15 K	1355.06
298.15 K	1351.21
303.15 K	1347.51
308.15 K	1343.75
313.15 K	1339.95
318.15 K	1336.13
323.15 K	1332.29

CCn1cc[n+](CC)c1.[Br-] [1,3-diethyl-1H-imidazolium bromide] + O
mass density [kg/m3], [2]
Conditions	m1 = 0.01477	m1 = 0.01845	m1 = 0.02167	m1 = 0.0271	m1 = 0.03151	m1 = 0.035	m1 = 0.04375	m1 = 0.04513	m1 = 0.05018
293.15 K	998.92	999.11	999.27	999.55	999.78	999.96	1000.42	1000.49	1000.75
298.15 K	997.72	997.91	998.07	998.35	998.57	998.75	999.19	999.26	999.51
303.15 K	996.18	996.36	996.52	996.8	997.03	997.2	997.63	997.7	997.94
308.15 K	994.23	994.41	994.58	994.87	995.11	995.29	995.71	995.77	995.97

CCCCCCCCCCCC[n+]1ccn(CC)c1.[Br-] [3-dodecyl-1-ethyl-1H-imidazolium bromide]
[1]
Conditions	mass density [kg/m3]
293.15 K	1084.31
298.15 K	1080.97
303.15 K	1077.53
308.15 K	1074.03
313.15 K	1070.48
318.15 K	1066.96
323.15 K	1063.43

CCCCCCCCCCCC[n+]1ccn(CC)c1.[Br-] [3-dodecyl-1-ethyl-1H-imidazolium bromide] + O
mass density [kg/m3], [2]
Conditions	m1 = 0.0061	m1 = 0.0074	m1 = 0.0109	m1 = 0.015	m1 = 0.021	m1 = 0.0257	m1 = 0.0362	m1 = 0.0521
293.15 K	998.38	998.42	998.52	998.64	998.81	998.94	999.24	999.68
298.15 K	997.16	997.19	997.27	997.38	997.53	997.65	997.91	998.31
303.15 K	995.65	995.68	995.73	995.83	995.99	996.12	996.37	996.72
